Source: patent US11542240B2, “STK19 inhibitors for treatment of cancer” (TRUSTEES OF BOSTON UNIVERSITY, priority 2018, dated 2023)

Assays:
[1] = biological target: STK19 (Homo sapiens (Human), UniProt P49842); test: STK19 kinase inhibitory activity, ADP-Glo kinase assay with NRAS substrate; assay type: biochemical
[2] = test system: SK-MEL-2 cells; assay type: cell-based, human; details: SK-MEL-2, G9a inhibition by A-366
Source text: (§1) In addition, the inventors investigated the growth inhibitory effects of IV in melanoma cells with different NRAS and BRAF status, including A375 and UACC62 (NRASWT, BRAFV600E), and SK-MEL-2 and WM2032 (NRASQ61R, BRAFWT).
(§2) To further confirm the pharmacological effects of IV derive from STK19 inhibition and not G9a inhibition, the inventors investigated the role of G9a in NRAS signaling activation. G9a was silenced by G9a-specific shRNA or inhibited by a specific inhibitor, A-366, in SK-MEL-2 and WM2032 melanoma cells. […] In summary, ZT-12-037-01 (IV) is a specific STK19-targeted inhibitor to block oncogenic NRAS-driven melanocyte malignant transformation and melanoma growth.

[3] = test system: WM2032 cells; assay type: cell-based, human; details: WM2032, G9a inhibition by A-366
Source text: as §1, §2

Chain of STK19 (P49842 other isoform, or with tags, fused parts or gaps): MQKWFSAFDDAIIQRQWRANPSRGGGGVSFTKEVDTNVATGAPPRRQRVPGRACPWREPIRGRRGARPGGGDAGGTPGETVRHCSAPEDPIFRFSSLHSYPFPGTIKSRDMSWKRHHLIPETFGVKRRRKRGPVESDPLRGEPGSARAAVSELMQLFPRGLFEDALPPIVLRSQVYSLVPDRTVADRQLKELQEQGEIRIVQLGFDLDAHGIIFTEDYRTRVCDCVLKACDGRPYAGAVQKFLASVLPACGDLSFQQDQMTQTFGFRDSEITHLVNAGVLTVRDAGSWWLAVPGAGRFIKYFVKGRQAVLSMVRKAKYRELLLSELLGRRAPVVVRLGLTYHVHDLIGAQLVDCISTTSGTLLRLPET

| inhibitory potential toward STK19 ([1]; in vitro kinase assay) | inhibition at 10 µM [1] | SMILES | H3K9 methylation levels [2] | H3K9 methylation levels [3] |
| --- | --- | --- | --- | --- |
| little inhibitory potential |  | COc1cc2c(cc1OCCCN1CCCC1)N=C(N)C21CCC1 [Formula A-366, reference compound] | markedly repressed | markedly repressed |
|  | 59% | COc1cc2nc(N3CCOCC3)nc(NC3CCN(C(C)C)CC3)c2cc1OC [Formula XXI] |  |  |
